Laboratory results taken from US9150566B2, “2-(1,2,3-triazol-2-yl)benzamide and 3-(1,2,3-triazol-2-YL)picolinamide derivatives as orexin receptor antagonists” (ACTELION PHARMACEUTICALS LTD., priority 2011, dated 2015).
Like-named read-outs stand apart in the source and are kept apart here.

Assays:
human orexin-1 receptor = human orexin-1 receptor (Homo sapiens (Human), UniProt O43613); assay: In vitro intracellular calcium measurements (FLIPR), antagonistic activity on orexin-1 receptor; format: cell-based; conditions: read-out: IC50 OX1
human orexin-1 receptor, sequence (O43613 whole entry): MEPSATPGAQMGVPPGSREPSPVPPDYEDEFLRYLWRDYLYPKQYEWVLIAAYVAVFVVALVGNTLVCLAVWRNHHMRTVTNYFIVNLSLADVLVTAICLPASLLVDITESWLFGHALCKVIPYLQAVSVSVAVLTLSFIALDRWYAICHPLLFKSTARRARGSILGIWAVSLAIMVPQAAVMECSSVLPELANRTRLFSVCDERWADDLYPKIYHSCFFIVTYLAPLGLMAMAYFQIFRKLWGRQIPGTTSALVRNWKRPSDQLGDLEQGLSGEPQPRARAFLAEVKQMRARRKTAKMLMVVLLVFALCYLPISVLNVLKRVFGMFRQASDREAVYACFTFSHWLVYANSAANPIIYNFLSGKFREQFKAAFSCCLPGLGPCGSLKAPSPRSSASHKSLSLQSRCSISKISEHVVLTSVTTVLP
Summary of the method: (§1)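 CHO cells expressing human orexin-1 or orexin-2 receptor were seeded overnight, preincubated with antagonist for 120 min, then stimulated with agonist in a FLIPR Tetra.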

human orexin-2 receptor = human orexin-2 receptor (Homo sapiens (Human), UniProt O43614); assay: In vitro intracellular calcium measurements (FLIPR), antagonistic activity on orexin-2 receptor; format: cell-based; conditions: read-out: IC50 OX2
human orexin-2 receptor, sequence (O43614 whole entry): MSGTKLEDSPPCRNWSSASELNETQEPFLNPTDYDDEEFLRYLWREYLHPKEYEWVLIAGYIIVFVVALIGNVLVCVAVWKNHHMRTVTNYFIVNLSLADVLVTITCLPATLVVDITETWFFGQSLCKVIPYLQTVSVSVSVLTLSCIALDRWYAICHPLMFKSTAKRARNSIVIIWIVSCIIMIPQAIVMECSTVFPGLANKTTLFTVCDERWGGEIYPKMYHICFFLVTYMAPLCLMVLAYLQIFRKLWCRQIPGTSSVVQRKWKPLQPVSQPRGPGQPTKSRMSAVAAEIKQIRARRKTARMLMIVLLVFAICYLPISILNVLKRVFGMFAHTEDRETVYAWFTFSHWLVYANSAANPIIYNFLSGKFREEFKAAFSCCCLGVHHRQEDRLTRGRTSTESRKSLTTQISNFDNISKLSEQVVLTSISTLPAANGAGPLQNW
Summary of the method: as §1

CYP3A4 = CYP3A4 (Homo sapiens (Human), UniProt P08684); assay: CYP3A4 inhibition assay (human liver microsomes, testosterone 6β-hydroxylation); conditions: read-out: CYP3A4 IC50, 40 μM testosterone
CYP3A4, sequence (P08684 whole entry): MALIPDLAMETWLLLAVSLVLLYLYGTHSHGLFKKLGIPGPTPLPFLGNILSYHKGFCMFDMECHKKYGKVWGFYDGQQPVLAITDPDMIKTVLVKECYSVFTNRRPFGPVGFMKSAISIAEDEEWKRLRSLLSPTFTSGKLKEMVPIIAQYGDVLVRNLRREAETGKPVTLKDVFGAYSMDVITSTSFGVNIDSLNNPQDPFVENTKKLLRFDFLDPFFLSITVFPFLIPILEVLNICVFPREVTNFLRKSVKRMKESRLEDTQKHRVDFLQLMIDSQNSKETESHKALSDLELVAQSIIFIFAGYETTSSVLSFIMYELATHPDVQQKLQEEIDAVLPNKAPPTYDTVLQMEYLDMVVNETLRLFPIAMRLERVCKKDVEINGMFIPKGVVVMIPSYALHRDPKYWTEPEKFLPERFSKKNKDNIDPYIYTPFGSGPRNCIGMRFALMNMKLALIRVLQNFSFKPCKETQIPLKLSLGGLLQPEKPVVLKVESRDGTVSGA

[1] = CHO cells expressing human orexin-1 receptor, FLIPR, 3 nM orexin-A agonist, 120 min antagonist incubation, geometric mean if determined several times
[2] = CHO cells expressing human orexin-2 receptor, FLIPR, 3 nM orexin-A agonist, 120 min antagonist incubation, geometric mean if determined several times

SMILES | IC50 (human orexin-1 receptor; [1]) [nM] | IC50 (human orexin-2 receptor; [2]) [nM] | IC50 (CYP3A4) [nM] | IC50 (human orexin-1 receptor) [nM] | IC50 (human orexin-2 receptor) [nM]
C[C@@H]1CN(C(=O)c2cc(Cl)ccc2-n2nccn2)[C@H](Cc2cc(-c3ncccn3)ccc2F)CO1 [Example 152, (5-Chloro-2-[1,2,3]triazol-2-yl-phenyl)-[(2R,5R)-5-(2-fluoro-5-pyrimidin-2-yl-benzyl)-2-methyl-morpholin-4-yl]-methanone] | 4 | 129 | 15000 | – | –
C[C@@H]1CN(C(=O)c2cccc(Cl)c2-n2nccn2)[C@H](Cc2cc(-c3ncccn3)ccc2F)CO1 [Example 154, (3-Chloro-2-[1,2,3]triazol-2-yl-phenyl)-[(2R,5R)-5-(2-fluoro-5-pyrimidin-2-yl-benzyl)-2-methyl-morpholin-4-yl]-methanone] | 13 | 447 | 24000 | – | –
O=C(c1cc(Cl)ccc1-n1nccn1)N1CCOC[C@H]1Cc1cc(-c2ncccn2)ccc1F [Example 159, (5-Chloro-2-[1,2,3]triazol-2-yl-phenyl)-[(R)-3-(2-fluoro-5-pyrimidin-2-yl-benzyl)-morpholin-4-yl]-methanone] | 6 | 490 | 17000 | – | –
O=C(c1cccc(Cl)c1-n1nccn1)N1CCOC[C@H]1Cc1cc(-c2ncccn2)ccc1F [Example 161, (3-Chloro-2-[1,2,3]triazol-2-yl-phenyl)-[(R)-3-(2-fluoro-5-pyrimidin-2-yl-benzyl)-morpholin-4-yl]-methanone] | 16 | 655 | 33000 | – | –
Cc1ccc(C(=O)N2C[C@@H](C)OC[C@H]2Cc2cc(-c3cccnn3)ccc2F)c(-n2nccn2)c1 [Example 165, [(2R,5R)-5-(2-Fluoro-5-pyridazin-3-yl-benzyl)-2-methyl-morpholin-4-yl]-(4-methyl-2-[1,2,3]triazol-2-yl-phenyl)-methanone] | 14 | 1300 | 20000 | – | –
Cc1ccc(C(=O)N2CCOC[C@H]2Cc2cc(-c3cccnn3)ccc2F)c(-n2nccn2)c1 [Example 166, [(R)-3-(2-Fluoro-5-pyridazin-3-yl-benzyl)-morpholin-4-yl]-(4-methyl-2-[1,2,3]triazol-2-yl-phenyl)-methanone] | 13 | 1400 | 19000 | – | –
Cc1ccc(C(=O)N2CCOC[C@H]2Cc2cc(-n3nccn3)ccc2Cl)c(-n2nccn2)c1C [Example 169, [(R)-3-(2-Chloro-5-[1,2,3]triazol-2-yl-benzyl)-morpholin-4-yl]-(3,4-dimethyl-2-[1,2,3]triazol-2-yl-phenyl)-methanone] | 5 | 2440 | 29000 | – | –
O=C(c1ccc(Cl)cc1-n1nccn1)N1CCOC[C@H]1Cc1cc(-n2nccn2)ccc1Cl [Example 170, [(R)-3-(2-Chloro-5-[1,2,3]triazol-2-yl-benzyl)-morpholin-4-yl]-(4-chloro-2-[1,2,3]triazol-2-yl-phenyl)-methanone] | 7 | 451 | 9800 | – | –
O=C(c1cccc(Cl)c1-n1nccn1)N1CCOC[C@H]1Cc1cc(-n2nccn2)ccc1Cl [Example 171, [(R)-3-(2-Chloro-5-[1,2,3]triazol-2-yl-benzyl)-morpholin-4-yl]-(3-chloro-2-[1,2,3]triazol-2-yl-phenyl)-methanone] | 10 | 675 | 13000 | – | –
C[C@@H]1CN(C(=O)c2cccc(Cl)c2-n2nccn2)[C@H](Cc2cccc(-n3nccn3)c2)CO1 [Example 172, (3-Chloro-2-[1,2,3]triazol-2-yl-phenyl)-[(2R,5R)-2-methyl-5-(3-[1,2,3]triazol-2-yl-benzyl)-morpholin-4-yl]-methanone] | 3 | 93 | 23000 | – | –
C[C@@H]1CN(C(=O)c2cccc(Cl)c2-n2nccn2)[C@H](Cc2cc(-n3nccn3)ccc2F)CO1 [Example 173, (3-Chloro-2-[1,2,3]triazol-2-yl-phenyl)-[(2R,5R)-5-(2-fluoro-5-[1,2,3]triazol-2-yl-benzyl)-2-methyl-morpholin-4-yl]-methanone] | 16 | 455 | 21000 | – | –
Cc1ccc(-n2nccn2)c(C(=O)N2CCOC[C@H]2Cc2cc(-c3ncon3)ccc2F)c1 [Example 174, [(R)-3-(2-Fluoro-5-[1,2,4]oxadiazol-3-yl-benzyl)-morpholin-4-yl]-(5-methyl-2-[1,2,3]triazol-2-yl-phenyl)-methanone] | 8 | 642 | 50000 | – | –
Cc1ccc(C(=O)N2CCOC[C@H]2Cc2cc(-c3ncon3)ccc2F)c(-n2nccn2)c1 [Example 175, [(R)-3-(2-Fluoro-5-[1,2,4]oxadiazol-3-yl-benzyl)-morpholin-4-yl]-(4-methyl-2-[1,2,3]triazol-2-yl-phenyl)-methanone] | 3 | 359 | 35000 | – | –
O=C(c1cc(Cl)ccc1-n1nccn1)N1CCOC[C@H]1Cc1cc(-c2ncon2)ccc1F [Example 176, (5-Chloro-2-[1,2,3]triazol-2-yl-phenyl)-[(R)-3-(2-fluoro-5-[1,2,4]oxadiazol-3-yl-benzyl)-morpholin-4-yl]-methanone] | 11 | 240 | 22000 | – | –
O=C(c1ccc(Cl)cc1-n1nccn1)N1CCOC[C@H]1Cc1cc(-c2ncon2)ccc1F [Example 178, (4-Chloro-2-[1,2,3]triazol-2-yl-phenyl)-[(R)-3-(2-fluoro-5-[1,2,4]oxadiazol-3-yl-benzyl)-morpholin-4-yl]-methanone] | 2 | 165 | 24000 | – | –
Cc1cc(C(=O)N2CCOC[C@H]2Cc2cc(-c3ncon3)ccc2F)c(-n2nccn2)cc1C [Example 179, (4,5-Dimethyl-2-[1,2,3]triazol-2-yl-phenyl)-[(R)-3-(2-fluoro-5-[1,2,4]oxadiazol-3-yl-benzyl)-morpholin-4-yl]-methanone] | 2 | 34 | 29000 | – | –
O=C(c1cccc(Cl)c1-n1nccn1)N1CCOC[C@H]1Cc1cc(-c2ncon2)ccc1F [Example 180, (3-Chloro-2-[1,2,3]triazol-2-yl-phenyl)-[(R)-3-(2-fluoro-5-[1,2,4]oxadiazol-3-yl-benzyl)-morpholin-4-yl]-methanone] | 19 | 830 | 36000 | – | –
Cc1ccc(C(=O)N2CCOC[C@H]2Cc2cc(-c3ncon3)ccc2F)c(-n2nccn2)c1C [Example 181, (3,4-Dimethyl-2-[1,2,3]triazol-2-yl-phenyl)-[(R)-3-(2-fluoro-5-[1,2,4]oxadiazol-3-yl-benzyl)-morpholin-4-yl]-methanone] | 11 | 1570 | 36000 | – | –
Cc1ccc(C(=O)N2CCOC[C@H]2Cc2cccc(-n3nccn3)c2F)c(-n2nccn2)c1 [Example 183, [(R)-3-(2-Fluoro-3-[1,2,3]triazol-2-yl-benzyl)-morpholin-4-yl]-(4-methyl-2-[1,2,3]triazol-2-yl-phenyl)-methanone] | – | – | > 50000 | 15 | 2130
C[C@@H]1CN(C(=O)c2cc(Cl)ccc2-n2nccn2)[C@H](Cc2cccc(-n3nccn3)c2)CO1 [Example 184, (5-Chloro-2-[1,2,3]triazol-2-yl-phenyl)-[(2R,5R)-2-methyl-5-(3-[1,2,3]triazol-2-yl-benzyl)-morpholin-4-yl]-methanone] | 2 | 96 | 19000 | – | –
C[C@@H]1CN(C(=O)c2ccc(Cl)cc2-n2nccn2)[C@H](Cc2cccc(-n3nccn3)c2)CO1 [Example 185, (4-Chloro-2-[1,2,3]triazol-2-yl-phenyl)-[(2R,5R)-2-methyl-5-(3-[1,2,3]triazol-2-yl-benzyl)-morpholin-4-yl]-methanone] | 2 | 39 | 20000 | – | –
C[C@@H]1CN(C(=O)c2cc(Cl)ccc2-n2nccn2)[C@H](Cc2cc(-n3nccn3)ccc2F)CO1 [Example 186, (5-Chloro-2-[1,2,3]triazol-2-yl-phenyl)-[(2R,5R)-5-(2-fluoro-5-[1,2,3]triazol-2-yl-benzyl)-2-methyl-morpholin-4-yl]-methanone] | 11 | 181 | 19000 | – | –
C[C@@H]1CN(C(=O)c2ccc(Cl)cc2-n2nccn2)[C@H](Cc2cc(-n3nccn3)ccc2F)CO1 [Example 187, (4-Chloro-2-[1,2,3]triazol-2-yl-phenyl)-[(2R,5R)-5-(2-fluoro-5-[1,2,3]triazol-2-yl-benzyl)-2-methyl-morpholin-4-yl]-methanone] | 6 | 58 | 14000 | – | –
Cc1ccc(-n2nccn2)c(C(=O)N2CCOC[C@H]2Cc2cc(-n3cccn3)ccc2C)c1 [Example 188, [(R)-3-(2-Methyl-5-pyrazol-1-yl-benzyl)-morpholin-4-yl]-(5-methyl-2-[1,2,3]triazol-2-yl-phenyl)-methanone] | 21 | 2130 | 14000 | – | –
Cc1ccc(C(=O)N2CCOC[C@H]2Cc2cc(-n3cccn3)ccc2C)c(-n2nccn2)c1 [Example 189, [(R)-3-(2-Methyl-5-pyrazol-1-yl-benzyl)-morpholin-4-yl]-(4-methyl-2-[1,2,3]triazol-2-yl-phenyl)-methanone] | 12 | 1090 | 17000 | – | –
Cc1ccc(-n2cccn2)cc1C[C@@H]1COCCN1C(=O)c1cccc(C)c1-n1nccn1 [Example 190, [(R)-3-(2-Methyl-5-pyrazol-1-yl-benzyl)-morpholin-4-yl]-(3-methyl-2-[1,2,3]triazol-2-yl-phenyl)-methanone] | 25 | 3770 | 26000 | – | –
